Series [1] deals with Caco-2 cells. Description: Caco-2 trans-well apparent permeability assay. It counts as in vitro ADME. To be noted: Caco-2. The procedure:
To initially characterize the permeability of BKIs 1294, 1369, and 1318, the software MedChem Designer (Simulations +, Lancaster, CA) was used to predict the Peff. The in vitro apparent permeability (Papp) was carried out by Absorption Systems LP (Exton, PA) with a Caco-2 trans-well assay. Caco-2 cells (clone C2BBe1) were obtained from American Type Culture Collection (Manassas, VA) were grown to confluence on collagen-coated, microporous membranes in 12-well assay plates. The permeability assay buffer was Hanks’ balanced salt solution (HBSS) containing 10 mM HEPES and 15 mM glucose at a pH of 7.4. The buffer in the receiver chamber also contained 1% bovine serum albumin. The dosing solution concentration was 5 µM BKI in assay buffer, and the cell monolayers were dosed on the apical side (A?B) or basolateral side (B?A) and incubated at 37°C with 5% CO2 in a humidified incubator. After 120 minutes, samples were taken from the donor and receiver chambers in duplicate. The Papp was calculated with equation (1) and the percent recovery with equation (2).
Papp = (dCr/dt) × Vr/(A × CA) (1)
Percent Recovery = 100 × ((Vr × Cr^final) + (Vd × Cd^final))/(Vd × […]) (2)
where dCr/dt is the slope of the cumulative concentration in the receiver compartment versus time in µM s^-1; Vr is the volume of the receiver compartment in cm^3; Vd is the volume of the donor compartment in cm^3; A is the area of the insert (1.13 cm^2 for 12-well); CA is the average of the nominal dosing concentration and the measured 120 minute donor concentration in µM; CN is the nominal concentration of the dosing solution in µM; Cr^final is the cumulative receiver concentration in µM at the end of the incubation period; Cd^final is the concentration of the donor in µM at the end of the incubation period.
To ensure no damage was inflicted to the cell monolayers during the flux period, lucifer yellow flux was also measured post-experimentally for each monolayer. To determine whether BKIs 1294, 1369, and 1318 were substrates of P-gp in vitro, P-gp efflux was characterized using the Caco-2 permeability assay protocol with a few modifications. The dosing solution concentration was 5 μM of BKI in the assay buffer +/- 1 μM valspodar. Cells were first pre-incubated for 30 minutes with HBSS containing +/- 1 μM valspodar. Cell monolayers were dosed on the apical side (A?B) or basolateral side (B?A), and incubated at 37°C with 5% CO2 in a humidified incubator. Samples were taken from the donor and receiver chambers at 120 minutes. Each determination was performed in duplicate.

The nature of series [2]: Mouse gastrointestinal tissue pharmacokinetics. The format is in vivo, mice. Conditions: for AUC(0-t) / Cmax / Tmax: mouse, po.
Experimental: At multiple time points following BKI1318 administration, mice were euthanized, and the GI tract was separated into segments corresponding to the duodenum, jejunum, ileum, and cecum/colon. […] At 0.5, 1, 2, 4, 8, and 12 hours, three mice in each group were sacrificed by cervical dislocation, and the duodenum, jejunum, ileum, and cecum/ascending colon were immediately collected. Each section of the GI tract was flushed with Dulbecco's phosphate-buffered saline, weighed, and placed in storage at -80°C. On the day of homogenization, 0.9% NaCl was added to each sample to achieve 200 mg/mL tissue concentration. Samples were homogenized using a handheld motorized homogenizer (Fisher Scientific, Waltham, MA) on ice and stored at -20°C until extraction and analysis. To report tissue concentrations, 1 gram of tissue was estimated to be 1 mL of volume.
Series [3] deals with C. parvum. Description: Hollow fiber in vitro Cryptosporidium culture with polarized HCT-8 cells. The format is cell-based, Cryptosporidium parvum. The procedure:
C. parvum was cultured using a hollow fiber bioreactor modified for evaluation of potential chemotherapeutic compounds [[21–23]]. Briefly, the system used a 20-kD MWCO polysulfone fiber cartridge (FiberCell Systems, Frederick, MD). HCT-8 cells were grown on the outer surface of the fibers (extracapillary space), and reservoirs were used to provide nutrients to the cells. When the glucose concentration decreased to at least 2 g/L, the extracapillary space was inoculated with 10^6C. parvum (Iowa isolate, Bunch Grass Farms, Deary, ID). […] Compound concentration was reduced over time by the flow of medium through the extracapillary and intracapillary spaces. Samples were removed from the extracapillary space once per day for evaluation of parasite numbers.
C. parvum growth was determined by analysis of the amount of C. parvum 18S-rRNA present and compared to the HCT-8 18S-rRNA as previously described^3. Briefly this was performed by centrifugation at 14,000 x g for 5 min of 0.5 mL samples collected from the extracapillary space (ECS). The pellet was resuspended in 100 µL of iScript buffer and subject to 6-freeze/thaw cycles comprising 1 min in liquid nitrogen followed by 1.5 min at 70 °C. The lysate was collected by centrifugation at 16,162 x g for 5 min, and the RNA purified according to the manufacturer’s instructions (iScriptTM, RT-qPCR sample preparation kit, Bio-Rad Laboratories). C. parvum was enumerated by quantitating the Cp18S-rRNA using the following specific forward and reverse primers - Cp18S-995F: 5’-[…]-3’ and Cp18S-1206R: 5’-[…]-3’ and compared to the human Hs18S-rRNA using the following primer sets - Hs18S-F1373: 5’-[…]-3’ and Hs18S-R1561: 5’-[…]-3’. The amount of 18S-rRNA was determined using 5 ng samples by RT-qPCR as described the manufacturer instructions using a Luna Universal One-Step® RT-qPCR kit (New England Biologics) and a Quant Studio 6 Flex 44 instrument. The cell number is calculated from the CT means using a set of standards prepared from 10^4, 10^5, and 10^6 C. parvum oocysts and compared to 10^4, 10^5, and 10^6 HCT-8 cells.

The subject of series [4] is Cryptosporidium. Further details: method as in PMID 28329187. Conditions: cited from earlier work.
For series [5], the system named is C. parvum. Further details: method as in PMID 28329187. Conditions: previously published study; cited from earlier work.

Molecules are shown by their SMILES. Entries after “also recorded” stand apart in the source; their conditions may differ. Like-named read-outs stand apart in the source and are kept apart here. Bounds are passed on as bounds.

Turning to `CCOc1ccc2cc(-c3nn(CC4CCNCC4)c4ncnc(N)c34)ccc2n1` [BKI1318], the “A → B Papp, fold lower than BKI1369 and BKI1294” value in series [1] is “approximately 50 fold”. Besides, in series [2] (mice, cecum/colon tissue), the “Effect of elacridar on levels in the cecum/colon” value was “did not significantly affect”. In addition, in series [2] (mice, duodenum tissue, P < .05), the “Increase of duodenum exposure when elacridar administered before” value is reported as “approximately 2 fold”. In addition, the “Increase of ileum exposure when elacridar administered before” value in series [2] (mice, ileum tissue, P < .05) was “approximately 3 fold”. In addition, in series [2] (mice, jejunum tissue, P < .05), the “Increase of jejunum exposure when elacridar administered before” value was “approximately 2 fold”. The AUC(0-t) in series [2] (cecum/colon, 30 mg/kg, Cecum/Colon, BKI 1318 alone, read-out: AUC0-12) was 109 µM·h; in series [2] (cecum/colon, Cecum/Colon, with elacridar, read-out: AUC0-12 w/ Elacridar), 65.5 ± 4 µM·h; in series [2] (duodenum, Duodenum, BKI 1318 alone, read-out: AUC0-12), 235 µM·h; in series [2] (duodenum, Duodenum, with elacridar, P≤0.001, read-out: AUC0-12 w/ Elacridar), 537 µM·h; in series [2] (ileum, 30 mg/kg, Ileum, BKI 1318 alone, read-out: AUC0-12) it was 336 µM·h; in series [2] (ileum, Ileum, with elacridar, P≤0.05, read-out: AUC0-12 w/ Elacridar), 1150 µM·h. The AUC(0-t) in series [2] (jejunum, Jejunum, BKI 1318 alone, read-out: AUC0-12) was 279 µM·h; in series [2] (jejunum, Jejunum, with elacridar, P≤0.05, read-out: AUC0-12 w/ Elacridar) it was 558 µM·h. In addition, the Cmax in series [2] (cecum/colon, 30 mg/kg, Cecum/Colon, BKI 1318 alone, read-out: Observed Cmax) is 14.4 µM; in series [2] (cecum/colon, Cecum/Colon, with elacridar, read-out: Cmax w/ Elacridar), 8.2 ± 0.3 µM; in series [2] (duodenum, Duodenum, BKI 1318 alone, read-out: Observed Cmax), 77.2 µM; in series [2] (duodenum, Duodenum, with elacridar, read-out: Cmax w/ Elacridar) it was 110 µM; in series [2] (ileum, Ileum, BKI 1318 alone, read-out: Observed Cmax) it was 79.8 µM; in series [2] (ileum, Ileum, with elacridar, read-out: Cmax w/ Elacridar), 177 µM. Also, the Cmax in series [2] (jejunum, Jejunum, BKI 1318 alone, read-out: Observed Cmax) was found to be 108 µM; in series [2] (jejunum, Jejunum, with elacridar, read-out: Cmax w/ Elacridar) it was 98.1 µM. Also, the Tmax in series [2] (cecum/colon, 30 mg/kg, Cecum/Colon, BKI 1318 alone, read-out: Tmax) was 9.3 h; in series [2] (cecum/colon, Cecum/Colon, with elacridar, read-out: Tmax w/ Elacridar) it was 7.3 ± 4.1 h; in series [2] (duodenum, Duodenum, BKI 1318 alone, read-out: Tmax), 0.5 h; in series [2] (duodenum, Duodenum, with elacridar, read-out: Tmax w/ Elacridar), 0.7 ± 0.2 h; in series [2] (ileum, Ileum, BKI 1318 alone, read-out: Tmax), 4.3 h; in series [2] (ileum, Ileum, with elacridar, read-out: Tmax w/ Elacridar), 2 h. Further, the Tmax in series [2] (jejunum, Jejunum, BKI 1318 alone, read-out: Tmax) is 0.8 h; in series [2] (jejunum, Jejunum, with elacridar, read-out: Tmax w/ Elacridar) it was 1.8 ± 1.5 h. Moreover, the “Effect on C. parvum levels/growth” value in series [3] (hollow fiber model, compound alone, 80 µM once daily) was “did not decrease; also recorded: no effect”. In series [3] (hollow fiber model, elacridar coadministered), the “Effect on C. parvum levels with elacridar coadministered” value is listed as “reduced C. parvum levels by an order of magnitude”. For the same compound, the “Reduction in C. parvum levels with elacridar (80 µM) coadministered” value in series [3] (hollow fiber, 80 µM BKI1318 once daily plus 80 µM elacridar) is given as “approximately 1 log”. Moreover, the “Efficacy in neonatal mouse model of Cryptosporidium infection” value in series [4] is on record as “efficacious”.
Regarding `CCOc1ccc2cc(-c3nn(CC4CCN(C)CC4)c4ncnc(N)c34)ccc2n1` [BKI1369], the “Reduction of C. parvum levels over the course of the study” value in series [3] (hollow fiber model, polarized HCT-8 cells) is given as > 3 orders of magnitude. Moreover, the “C. parvum reduction in mouse model of cryptosporidiosis” value in series [5] is reported as more than 2 log. For the same compound, in series [4], the “Efficacy in neonatal mouse model of Cryptosporidium infection” value is “efficacious”.

The values above are taken from PMC6736360, “P-Glycoprotein–Mediated Efflux Reduces the In Vivo Efficacy of a Therapeutic Targeting the Gastrointestinal Parasite Cryptosporidium” (The Journal of Infectious Diseases, 2019).
